According to publication PMC6274483, “Novel Selective and Potent EGFR Inhibitor that Overcomes T790M-Mediated Resistance in Non-Small Cell Lung Cancer” (Molecules, 2016):
Entries after “also recorded” stand apart in the source; their conditions may differ. Like-named read-outs stand apart in the source and are kept apart here.

Experiments:
H1975 cells [1] = experiment: Intracellular ROS generation (DCFH-DA), H1975; format: cell-based, human; details: H1975, 24 h
Description: (§1) The human H1975 and A431 cells at a density of approximately 2 × 10^5 cells/well were plated in a 6-well plate and then treated with different concentrations of inhibitors for 24 h. Then the cells were harvested, resuspended in 1 mL of DCFH-DA ([…]), and the levels of ROS were determined by flow cytometry (Becton-Dickinson, Franklin Lakes, NJ, USA).

A431 cells [2] = experiment: Intracellular ROS generation (DCFH-DA), A431; format: cell-based, human; details: A431, 24 h
Description: as §1

HBE cells = experiment: CCK-8 cell viability, HBE normal bronchial cells; format: cell-based; details: HBE normal human bronchial cell line, read-out: Cellular Antiproliferative Activity (IC50, μM) HBE
Description: (§2) All the cell viability assays were performed according to the CCK-8 method. The cells were seeded at a density of 5 to 8 × 10^4 cells/mL in 96-well plates in growth medium supplemented with 10% serum at 37 °C with 5% CO2 for one day. After 12 h of incubation, 100 μL of medium was removed, and 100 μL of sample solution with different concentrations of inhibitor was added and then the cells were incubated for 48 or 72 h. Subsequently, 10 μL of CCK-8 reagent (Biotool Company, Kirchberg, Switzerland, 5.0 mg/mL) dissolved in phosphate-buffered saline (PBS) was added and the cells were incubated for another 4 h. The absorbance was read at 450 nm with a microplate reader (Thermo Fisher Scientific, Waltham, MA, USA). The data were calculated using GraphPad Prim version 5.0.

H1975 cells [3] = experiment: Cell apoptosis, Annexin V-FITC/PI flow cytometry, H1975; format: cell-based, human; details: 48 h
Description: The H1975 and A431 cells (1 to 5 × 10^5 cells/well) incubated in 6-well plates were treated by different concentrations of inhibitors for 48 h. Then, they were collected and fixed with 70% ethanol at 4 °C overnight. After beening fixed with […], the cells were stained with Annexin V-FITC (5 μL)/propidium iodide (5 μL) and analyzed by flow cytometry assay (Becton-Dickinson, Franklin Lakes, NJ, USA).

A431 cells [4] = experiment: CCK-8 cell viability, A431; format: cell-based; details: Homo sapiens
Description: as §2

wild-type EGFR = biological target: T1, wild-type EGFR (Homo sapiens, UniProt P00533); experiment: EGFR kinase enzymatic assay (ADP-Glo), wild-type; format: biochemical; details: read-out: EGFR (IC50, nM) WT
T1 construct: purchased Promega Corporation V3831
Description: (§3) The experiments were performed according to the instructions of the manufacturer. […] The test was performed in a 384-well plate, and includes the major steps below: (1) perform a 5 μL kinase reaction using 1× kinase buffer (e.g., 1× reaction buffer A); (2) incubate at room temperature for 60 min; (3) add 5 μL of ADP-Glo™ Reagent to stop the kinase reaction and deplete the unconsumed ATP, leaving only ADP and a very low background of ATP; (4) incubate at room temperature for 40 min; (5) add 10 μL of Kinase Detection; (6) reagent to convert ADP to ATP and introduce luciferase and luciferin to detect ATP; (7) incubate at room temperature for 30 min; (8) plate was measured on TriStar® LB942 Multimode Microplate Reader (BERTHOLD TECHNOLOGIES GmbH & Co. KG., Bad Wildbad, Germany) to detect the luminescence (Integration time 0.5–1 s). Curve fitting and data presentations were performed using GraphPad Prism version 5.0 (GraphPad Software, Inc.).

H1975 cells [5] = experiment: Wound healing and transwell assays, H1975; format: cell-based, human
Description: (§4) The cancer cells were cultured in 6-well plates for 48 h at 37 °C. Wounds were created in the cell monolayer and washed with PBS to remove cell debris, then the cells were treated with different concentrations of inhibitor for 48 h. After that, the dead cells were washed away with PBS, and the images were taken by the fluorescence microscope (OLYMPUS).
(§5) Cell migration assay was evaluated by using Boyden chambers containing a transwell membrane filter with an 8 μm size pore (Corning Costa Corp, Cambridge, MA, USA). Prior to the invasion assay, the filter membrane was coated with 60 μL of Matrigel (BD Biosciences, Billerica, MA, USA) at a 1:8 dilution and rehydrated by adding […] serum-free medium to the apical side of the chamber at 37 °C for 0.5 h. The cells (2 × 10^5 cells/well for invasion assay) were seeded to the apical side of the chamber with 200 μL medium with different concentrations of inhibitors, and the basolateral side of the chamber was filled with 600 μL medium containing 10% FBS. After 24 h at 37 °C, the cells adherent to the upper surface of the filter were swept by cotton swabs, then fixed with methanol, stained with crystal violet, and the cells were counted under a microscope in five random fields, irrespective of staining intensity. The images were taken by the fluorescence microscope (OLYMPUS).

A431 cells [6] = experiment: Wound healing and transwell assays, A431; format: cell-based, human
Description: as §4, §5

HCC827 cells = experiment: CCK-8 cell viability, HCC827; format: cell-based; details: Homo sapiens
Description: as §2

H1299 cells = experiment: CCK-8 cell viability, H1299; format: cell-based; details: Homo sapiens, NCI-H1299, H1299 (wild-type), read-out: Cellular Antiproliferative Activity (IC50, μM) H1299
Description: as §2

LoVo cells = experiment: CCK-8 cell viability, LoVo; format: cell-based; details: Homo sapiens
Description: as §2

A431 cells [7] = experiment: Cell cycle analysis, PI flow cytometry, A431; format: cell-based, human; details: 48 h
Description: (§6) The H1975 and A431 cells at a density of approximately 2 × 10^5 cells/well were incubated in 6-well plates, treated with different concentrations of inhibitors for 48 h, collected and fixed with 70% ethanol at 4 °C overnight. After fixation, the cells were washed with PBS and stained with propidium iodide (PI) for 10 min under subdued light. Stained cells were analyzed by flow cytometry assay (Becton-Dickinson, Franklin Lakes, NJ, USA).

A431 cells [8] = experiment: Cell apoptosis, Annexin V-FITC/PI flow cytometry, A431; format: cell-based, human; details: 48 h
H1975 cells [9] = experiment: AO/EB and DAPI staining, H1975; format: cell-based, human; details: H1975, AO/EB or DAPI staining, 48 h
Description: (§7) Approximately 2 × 10^5 cells/well of A431 and H1975 cells in 6-well plates were incubated in an incubator for 48 h, then treated with different concentrations of inhibitors for 48 h. After incubation, the cells were washed with PBS twice. Then, total of 20 μL of the solution containing the AO/EB dye mix (1.0 μg/mL of AO and 1.0 μg/mL of EB in PBS) was added to the cells. The apoptotic, necrotic, and live cells were observed and counted under the fluorescent microscope (OLYMPUS, Tokyo, Japan). DAPI staining was performed after being treated as mentioned above. The cells plated in 6-well plates were washed twice with PBS and fixed with 10% formaldehyde for 10 min, then washed with PBS three times. Cells were subsequently incubated in DAPI (1.0 μg/mL) solution at room temperature for 10 min, washed with PBS and examined under a fluorescence microscope (OLYMPUS).

H1975 cells [10] = experiment: Cell cycle analysis, PI flow cytometry, H1975; format: cell-based, human; details: H1975, 200 nM, 48 h, cell cycle phase
Description: as §6

A431 cells [11] = experiment: AO/EB and DAPI staining, A431; format: cell-based, human; details: A431, AO/EB or DAPI staining, 48 h
Description: as §7

EGFR L858R/T790M = biological target: T2, EGFR L858R/T790M (Homo sapiens, UniProt P00533, L858R/T790M); experiment: EGFR kinase enzymatic assay (ADP-Glo), L858R/T790M mutant; format: biochemical
T2 construct: purchased Promega Corporation V5324
Description: as §3, with “Concentrations consisting of suitable levels from 0.1 to 100 nM were used for all of the tested compunds. The experiments” for “The experiments”

A549 cells = experiment: CCK-8 cell viability, A549; format: cell-based; details: Homo sapiens
Description: as §2

LO-2 cells = experiment: CCK-8 cell viability, LO-2 normal liver cells; format: cell-based; details: Homo sapiens, L02, LO-2 normal liver cell line, read-out: Cellular Antiproliferative Activity (IC50, μM) LO-2
Description: as §2

H1975 cells [12] = experiment: CCK-8 cell viability, H1975; format: cell-based; details: Homo sapiens, NCI-H1975, H1975 (EGFR T790M), read-out: Cellular Antiproliferative Activity (IC50, μM) H1975
Description: as §2

[13] = In vivo blood sugar test (rat oral glucose tolerance); details: healthy male SD rats, 50 mg/kg (HBr form), up to 12 h
Description: The Roche Accu-chek® Go blood meter was used for the determination of glucose concentration. Before testing, standard set-up of blood meter was performed according to the instrument’s specifications. […] Water was allowed ad libitum throughout the study. Rats were orally given compound DY3002 (50 mg/kg) and a vehicle. For the oral study, the compounds were formulated as a solution (Solutol HS15: NS = 30:70, v:v). Sampling occurred prior to dosing and at 7–9 different time points up to 12 h. Concentration of glucose in the blood was determined by blood meter.

[14] = high dose, patients in clinical trials; cited from earlier work
[15] = A-431, A431 (wild-type), CCK-8, read-out: Cellular Antiproliferative Activity (IC50, μM) A431
[16] = HCC827 (EGFR del E746_A750), CCK-8, read-out: Cellular Antiproliferative Activity (IC50, μM) HCC827
[17] = CCK-8, read-out: Cellular Antiproliferative Activity (IC50, μM) LoVo
[18] = A549 (wild-type and k-ras), CCK-8, read-out: Cellular Antiproliferative Activity (IC50, μM) A549

Compound | effect on ROS generation (H1975 cells [1]) | effect on ROS generation (A431 cells [2]) | IC50 (HBE cells) [µM] | Apoptosis rate (%) (H1975 cells [3]; H1975, 200 nM) | IC50 (A431 cells [4]; [15]) [µM] | IC50 (HCC827 cells; [16]) [µM] | IC50 (H1299 cells) [µM] | IC50 (LoVo cells; [17]) [µM] | Apoptosis rate (%) (A431 cells [8]; A431, 1 μM) | IC50 (A549 cells; [18]) [µM] | IC50 (LO-2 cells) [µM] | IC50 (H1975 cells [12]) [µM] | further results
C=CC(=O)Nc1cccc(Nc2nc(Nc3ccc(CN4CCOCC4)cc3)ncc2Cl)c1 [DY3002, N-(3-((5-chloro-2-(4-((1-morpholino)methyl)phenylamino)-4-pyrimidinyl)amino)phenyl)acrylamide] | effectively inhibited ROS generation | effectively inhibited ROS generation | > 40 | 72.0 | 0.382 | 0.0104 | 4.12 | 2.46 | 50.8 | 4.45 | 4.24 | 0.037 | Apoptosis rate (%) (H1975 cells [3]; H1975, 100 nM): 25.7%; Apoptosis rate (%) (H1975 cells [3]; H1975, 400 nM): 90.1%; IC50 (wild-type EGFR): 449 nM; inhibition of cell migration (H1975 cells [5]): strongly inhibit migration; inhibition of cell migration (A431 cells [6]): only moderately interfered; G0/G1 (A431 cells [7]; A431, 2 μM, cell cycle phase): 75.87%; cell-cycle arrest (A431 cells [7]; A431, 0.5, 1 and 2 μM): G0/G1 arrest; Apoptosis rate (%) (A431 cells [8]; A431, 0.5 μM): 46.1%; Apoptosis rate (%) (A431 cells [8]; A431, 2 μM): 61.6%; apoptotic morphology (H1975 cells [9]): striking nuclear condensation, membrane blebbing, nuclear fragmentation, and apoptotic bodies; G0/G1 (H1975 cells [10]): 91.33%; S (H1975 cells [10]): 5.67%; apoptotic morphology (A431 cells [11]): striking nuclear condensation, membrane blebbing, nuclear fragmentation, and apoptotic bodies; IC50 (EGFR L858R/T790M; EGFR L858R/T790M, ADP-Glo kinase assay): 0.71 nM; SI(WT:L858R/T790M) (EGFR L858R/T790M; selectivity index, IC50 WT / IC50 L858R/T790M): 632.0; hyperglycemia (blood glucose concentration versus control group) [13]: did not result in hyperglycemia; also recorded: did not yield hyperglycemia; also recorded: no hyperglycemia side effects
COc1cc2ncnc(Nc3ccc(F)c(Cl)c3)c2cc1OCCCN1CCOCC1 [Gefitinib, gefitinib, reference compound] |  |  |  | 4.6 |  |  |  |  |  |  |  |  | 
C=CC(=O)Nc1cc(Nc2nccc(-c3cn(C)c4ccccc34)n2)c(OC)cc1N(C)CCN(C)C [Osimertinib, osimertinib] | […] | […] | 8.39 |  |  |  | 7.49 |  |  |  | 4.56 | 0.087 | IC50 (A431 cells [4]; A-431, read-out: Cellular Antiproliferative Activity (IC50, μM) A431): […]; IC50 (HCC827 cells; HCC827, read-out: Cellular Antiproliferative Activity (IC50, μM) HCC827): 0.0102 µM; IC50 (LoVo cells; read-out: Cellular Antiproliferative Activity (IC50, μM) LoVo): 4.85 µM; IC50 (A549 cells; A549, read-out: Cellular Antiproliferative Activity (IC50, μM) A549): 7.28 µM
C=CC(=O)Nc1cccc(Nc2nc(Nc3ccc(N4CCN(C(C)=O)CC4)cc3OC)ncc2C(F)(F)F)c1 [Rociletinib, rociletinib] | effectively inhibited ROS generation | effectively inhibited ROS generation | > 40 | 65.2 | 1.29 | 0.0181 | 20.1 | 20.1 | 54.5 | 6.5 | 8.57 | 0.137 | side effect in patients [14]: hyperglycemia
